# Results published in PubChem BioAssay (NCI).
#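 Where inhibition never reached the appropriate level, the endpoint shown equals the highest concentration tested. Otherwise, values were interpolated linearly from a five-concentration, 48-hour dose response in 96-well plates. GI50 is the concentration that inhibits growth by half. TGI marks complete inhibition of growth.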
# Columns and labels:
# Experiment in all cases: NCI anticancer screen, dose series, 48 h
# U251 CNS = tested on: U251 CNS
# HL-60(TB) leukemia = tested on: HL-60(TB) leukemia
# MDA-MB-435 = tested on: MDA-MB-435
# HS 578T breast = tested on: HS 578T breast
# MOLT-4 leukemia = tested on: MOLT-4 leukemia
# MCF7 breast = tested on: MCF7 breast
# SNB-19 CNS = tested on: SNB-19 CNS
# RXF 393 renal = tested on: RXF 393 renal
# PC-3 prostate = tested on: PC-3 prostate
# HCT-15 colon = tested on: HCT-15 colon
# UACC-257 melanoma = tested on: UACC-257 melanoma
# KM12 colon = tested on: KM12 colon
# MALME-3M melanoma = tested on: MALME-3M melanoma
# SR leukemia = tested on: SR leukemia
# NCI-H460 lung = tested on: NCI-H460 lung
# SK-MEL-2 melanoma = tested on: SK-MEL-2 melanoma
# UO-31 renal = tested on: UO-31 renal
# MDA-MB-468 breast = tested on: MDA-MB-468 breast
# OVCAR-8 ovarian = tested on: OVCAR-8 ovarian
# EKVX NSCLC = tested on: EKVX NSCLC
# SNB-75 CNS = tested on: SNB-75 CNS
# CCRF-CEM leukemia = tested on: CCRF-CEM leukemia
# A549 NSCLC = tested on: A549 NSCLC
# HCT-116 colon = tested on: HCT-116 colon
# SK-MEL-28 melanoma = tested on: SK-MEL-28 melanoma
# IGROV1 ovarian = tested on: IGROV1 ovarian
# SF-268 CNS = tested on: SF-268 CNS
# MDA-MB-231 breast = tested on: MDA-MB-231 breast
# TK-10 renal = tested on: TK-10 renal
# NCI-H522 lung = tested on: NCI-H522 lung
# M14 melanoma = tested on: M14 melanoma
# HOP-92 NSCLC = tested on: HOP-92 NSCLC
# NCI-H23 lung = tested on: NCI-H23 lung
# K-562 leukemia = tested on: K-562 leukemia
# DU-145 prostate = tested on: DU-145 prostate
# RPMI-8226 leukemia = tested on: RPMI-8226 leukemia
# SF-539 CNS = tested on: SF-539 CNS
# SN12C renal = tested on: SN12C renal
# ACHN renal = tested on: ACHN renal
# OVCAR-4 ovarian = tested on: OVCAR-4 ovarian
# BT-549 breast = tested on: BT-549 breast
# SK-MEL-5 melanoma = tested on: SK-MEL-5 melanoma
# NCI-H226 lung = tested on: NCI-H226 lung
# SK-OV-3 ovarian = tested on: SK-OV-3 ovarian
# SF-295 CNS = tested on: SF-295 CNS
# UACC-62 melanoma = tested on: UACC-62 melanoma
# HCC-2998 colon = tested on: HCC-2998 colon
# A498 renal = tested on: A498 renal
# CAKI-1 renal = tested on: CAKI-1 renal
# HOP-62 NSCLC = tested on: HOP-62 NSCLC
# SW-620 colon = tested on: SW-620 colon
# OVCAR-3 ovarian = tested on: OVCAR-3 ovarian
# LOX IMVI melanoma = tested on: LOX IMVI melanoma
# OVCAR-5 ovarian = tested on: OVCAR-5 ovarian
# T-47D breast = tested on: T-47D breast
# 786-0 renal = tested on: 786-0 renal
# HT29 colon = tested on: HT29 colon
# COLO 205 colon = tested on: COLO 205 colon
compound,measurement,setting,value
CCCCOc1ccc(NC(=O)c2sc3nc(C)ccc3c2N)cc1,GI50,U251 CNS,3.41 µM
same,TGI,U251 CNS,11.1 µM
same,GI50,HL-60(TB) leukemia,49.9 µM
same,TGI,HL-60(TB) leukemia,> 100 µM
same,GI50,MDA-MB-435,4.96 µM
same,TGI,MDA-MB-435,22.1 µM
same,GI50,HS 578T breast,5.97 µM
same,TGI,HS 578T breast,38.7 µM
same,GI50,MOLT-4 leukemia,7.46 µM
same,TGI,MOLT-4 leukemia,> 100 µM
same,GI50,MCF7 breast,3.07 µM
same,TGI,MCF7 breast,16.4 µM
same,GI50,SNB-19 CNS,3.47 µM
same,TGI,SNB-19 CNS,13.8 µM
same,GI50,RXF 393 renal,2.98 µM
same,TGI,RXF 393 renal,12.9 µM
same,GI50,PC-3 prostate,7.74 µM
same,TGI,PC-3 prostate,> 100 µM
same,GI50,HCT-15 colon,3.87 µM
same,TGI,HCT-15 colon,17.7 µM
same,GI50,UACC-257 melanoma,10 µM
same,TGI,UACC-257 melanoma,44.6 µM
same,GI50,KM12 colon,3.96 µM
same,TGI,KM12 colon,18.5 µM
same,GI50,MALME-3M melanoma,5.31 µM
same,TGI,MALME-3M melanoma,19.4 µM
same,GI50,SR leukemia,3.3 µM
same,TGI,SR leukemia,> 100 µM
same,GI50,NCI-H460 lung,3.23 µM
same,TGI,NCI-H460 lung,10.9 µM
same,GI50,SK-MEL-2 melanoma,8.95 µM
same,TGI,SK-MEL-2 melanoma,31.4 µM
same,GI50,UO-31 renal,2.32 µM
same,TGI,UO-31 renal,11.2 µM
same,GI50,MDA-MB-468 breast,1.23 µM
same,TGI,MDA-MB-468 breast,3.29 µM
same,GI50,OVCAR-8 ovarian,2.61 µM
same,TGI,OVCAR-8 ovarian,6.67 µM
same,GI50,EKVX NSCLC,2.17 µM
same,TGI,EKVX NSCLC,14.7 µM
same,GI50,SNB-75 CNS,2.39 µM
same,TGI,SNB-75 CNS,9.02 µM
same,GI50,CCRF-CEM leukemia,54 µM
same,TGI,CCRF-CEM leukemia,> 100 µM
same,GI50,A549 NSCLC,3.22 µM
same,TGI,A549 NSCLC,9.73 µM
same,GI50,HCT-116 colon,2.28 µM
same,TGI,HCT-116 colon,6.04 µM
same,GI50,SK-MEL-28 melanoma,12.2 µM
same,TGI,SK-MEL-28 melanoma,29.8 µM
same,GI50,IGROV1 ovarian,4.1 µM
same,TGI,IGROV1 ovarian,17.4 µM
same,GI50,SF-268 CNS,6.39 µM
same,TGI,SF-268 CNS,29.9 µM
same,GI50,MDA-MB-231 breast,2.93 µM
same,TGI,MDA-MB-231 breast,10.6 µM
same,GI50,TK-10 renal,5.57 µM
same,TGI,TK-10 renal,20.4 µM
same,GI50,NCI-H522 lung,2.88 µM
same,TGI,NCI-H522 lung,15.2 µM
same,GI50,M14 melanoma,12.6 µM
same,TGI,M14 melanoma,35.2 µM
same,GI50,HOP-92 NSCLC,5.71 µM
same,TGI,HOP-92 NSCLC,22.8 µM
same,GI50,NCI-H23 lung,1.5 µM
same,TGI,NCI-H23 lung,3.56 µM
same,GI50,K-562 leukemia,2.85 µM
same,TGI,K-562 leukemia,> 100 µM
same,GI50,DU-145 prostate,5.29 µM
same,TGI,DU-145 prostate,36.1 µM
same,GI50,RPMI-8226 leukemia,8.14 µM
same,TGI,RPMI-8226 leukemia,> 100 µM
same,GI50,SF-539 CNS,1.89 µM
same,TGI,SF-539 CNS,3.77 µM
same,GI50,SN12C renal,4.09 µM
same,TGI,SN12C renal,22.8 µM
same,GI50,ACHN renal,2.72 µM
same,TGI,ACHN renal,12.7 µM
same,GI50,OVCAR-4 ovarian,1.49 µM
same,TGI,OVCAR-4 ovarian,5.97 µM
same,GI50,BT-549 breast,2.56 µM
same,TGI,BT-549 breast,10.2 µM
same,GI50,SK-MEL-5 melanoma,2 µM
same,TGI,SK-MEL-5 melanoma,10.2 µM
same,GI50,NCI-H226 lung,2.89 µM
same,TGI,NCI-H226 lung,18.7 µM
same,GI50,SK-OV-3 ovarian,6.36 µM
same,TGI,SK-OV-3 ovarian,20 µM
same,GI50,SF-295 CNS,2.59 µM
same,TGI,SF-295 CNS,10.3 µM
same,GI50,UACC-62 melanoma,6.89 µM
same,TGI,UACC-62 melanoma,22.9 µM
same,GI50,HCC-2998 colon,4.73 µM
same,TGI,HCC-2998 colon,20.6 µM
same,GI50,A498 renal,14.9 µM
same,TGI,A498 renal,28.5 µM
same,GI50,CAKI-1 renal,3.47 µM
same,TGI,CAKI-1 renal,16.7 µM
same,GI50,HOP-62 NSCLC,10.6 µM
same,TGI,HOP-62 NSCLC,28 µM
same,GI50,SW-620 colon,11.4 µM
same,TGI,SW-620 colon,31 µM
same,GI50,OVCAR-3 ovarian,2.8 µM
same,TGI,OVCAR-3 ovarian,8.65 µM
same,GI50,LOX IMVI melanoma,2.36 µM
same,TGI,LOX IMVI melanoma,6.68 µM
same,GI50,OVCAR-5 ovarian,4.61 µM
same,TGI,OVCAR-5 ovarian,28.8 µM
same,GI50,T-47D breast,2.82 µM
same,TGI,T-47D breast,25.7 µM
same,GI50,786-0 renal,1.86 µM
same,TGI,786-0 renal,4.21 µM
same,GI50,HT29 colon,6.83 µM
same,TGI,HT29 colon,26.3 µM
same,GI50,COLO 205 colon,19.3 µM
same,TGI,COLO 205 colon,54.4 µM
